Data published in patent publication US5906820A, “Epidermal growth factor receptor targeted molecules for treatment of inflammatory arthritis” (priority 1997, dated 1999).

Tested on: A431 cells
Assay: Protein synthesis ([3H]leucine incorporation) assay: inhibition of DAB389 EGF cytotoxicity by chloroquine
Conditions: for % of control Protein Synthesis, + Chloroquine: relative to chloroquine treatment alone

CCN(CC)CCCC(C)Nc1ccnc2cc(Cl)ccc12 (stereo not shown) [Chloroquine, chloroquine]
% of control Protein Synthesis, + Chloroquine (A431 cells, chloroquine 10 μM with DAB389 EGF 1 pm, 20 hr): 100%
% of control Protein Synthesis, + Chloroquine (A431 cells, chloroquine 10 μM with DAB389 EGF 10 pm, 20 hr): 61%
blocking of the cytotoxicity of DAB389 EGF (A431 cells, chloroquine 10 μM, 20 hr): completely blocked
inhibition at 10 µM (Homo sapiens, A-431, 20 h, read-out: reduction of protein synthesis by chloroquine treatment alone): 27%
